Results reported in patent publication US20260018245A1, “SYSTEMS AND METHODS FOR IDENTIFYING AND TARGETING COLLATERAL LETHAL GENES” (The Regents of the University of Michigan, priority 2022, published 2026).

How the values were obtained:
SKOV3 cells = test: Oxygen consumption rate (OCR) measurement; format: cell-based
Description: FIG. 4 Dynamic flux analysis with parallel tracers to quantify oxidative MTHFD2 flux. a, Oxidative MTHFD2 flux and percentage decrease in OCRfollowing MTHFD2 inhibition in SKOV3 cells treated with rotenone (0, 31, 62, 125, 250, 500 or 1,000 nM) and MTHFD2 inhibitor (0 or 60 μM). Oxidative MTHFD2 flux is proportional to [2H1]-serine/[2H1]-NADH enrichment in cells cultured with 4-[2H]-glucose for 8 h. Percentage decrease in OCR is estimated in SKOV3 cells treated with 60 μM MTHFD2i compared with 0 μM MTHFD2i. Oxidative flux data are combined from two independent experiments (n=4), with mean±s.d. estimated using error propagation. OCR data are representative of two independent experiments and presented as mean±s.d. estimated using error propagation (n=5). b, Reductive MTHFD2 flux and basal OCR in SKOV3 cells treated with rotenone (0, 31, 62, 125, 250 or 1,000 nM) and MTHFD2 inhibitor (0 or 60 μM). Reductive MTHFD2 flux is proportional to [2H1]-NADH in cells cultured with 2,3,3-[2H]-serine for 8 h. OCR data are representative of two independent experiments and presented as mean±s.e.m. (n=5). c, Schematic of combination tracer experiment with 4-[2H]-glucose and [2H]-formate to track oxidative MTHFD2 flux. […] (n=6) and analysed using two-tailed Welch's t-test. e, Ratio of [2H2]-serine/[2H]-NADH enrichment in SKOV3 and OVCAR8 cells at 2 h after combined tracer introduction of 4-[2H]-glucose and [2H]-formate, representing the normalized contribution of [2H]-NADH to [2H2]-serine via oxidative MTHFD2 flux. Data combined from two independent experiments (n=6), with mean±s.d. estimated using error propagation and analysed by two-tailed Welch's t-test. f, [2H2]-serine enrichment in SKOV3 cells expressing shScramble or shUQCR11 at 2 h after combined tracer introduction of 4-[2H]-glucose and [2H]-formate. […] (n=5) and analysed using one-tailed non-parametric Mann-Whitney test.
OCR measurement. […] Live OCR was measured for up to 16 h after attaching the lid.
Mito stress test with the Seahorse analyser. Mitochondrial OCR was measured using a Seahorse XFe96 analyser (Agilent Technologies). […]

UQCR11-null HeyA8 cells = test: Resistance to MTHFD2 inhibition upon AOX expression or UQCR11 overexpression; format: cell-based; settings: 72 h
Excerpt: FIG. 11 Investigating alternative metabolic pathways to rescue UQCR11-null cells from collateral lethal targeting of MTHFD2. (a) Correlation between NDUFS7 mRNA expression and copy-number alterations of the 19p13.3 locus, represented by UQCR11 copy-number in TCGA OVCA dataset (n=303). Correlations estimated using Spearman's rank correlation test. (b) Gene expression of NDUFS7 measured via qRT-PCR in UQCR11-null lines (OVCAR8, CAOV3, HeyA8) relative to NDUFS7 expression in UQCR11-intact line (SKOV3). Data representative of two independent experiments presented as mean±s.d. (n=5), analyzed using ordinary one-way ANOVA with Dunnett's correction for multiple comparisons. (c) Doseresponse curve for single-agent inhibition in SKOV3 cells by either Complex I inhibitor, rotenone, or MTHFD2 inhibitor. […] Data are representative of two independent experiments and presented as mean±s.e.m (n=3) and analyzed using two-tailed Welch's t-test. […] Viability decrease was measured 72 h after inhibitor treatment relative to vehicle control. […] (n=6) and analyzed using ordinary 2-way ANOVA with Sidak's correction for multiple comparisons. […] (n=4) and analyzed using two-tailed Welch's t-test. […] Viability decrease was measured 72 h after inhibitor treatment relative to vehicle control. […] (n=5) and analyzed using two-tailed Welch's t-test.

With Cc1c(N2CCN(C)[C@@H](C)C2)ccc2c3c(c(=O)oc12)CN(C(=O)c1ccc(NS(C)(=O)=O)c(OC(F)(F)F)c1)CC3 [DS18561882] the OCR (SKOV3 cells; SKOV3, low range of rotenone doses plus MTHFD2 inhibitor 60 μM) was “synergistic decrease”, the OCR (SKOV3 cells; SKOV3, rotenone doses >62 nM plus MTHFD2 inhibitor) was “did not detrimentally affect OCR” and the “rescue from MTHFD2 inhibitor-mediated cell death” value (UQCR11-null HeyA8 cells; HeyA8 ectopically expressing alternative oxidase AOX) was “partially rescued”. For the same compound, the “rescue from MTHFD2 inhibitor-mediated cell death” value (UQCR11-null HeyA8 cells; HeyA8 overexpressing UQCR11) was “partially rescued”.
